Earlier results in patent US6794347B2, “Process of making gel detergent compositions” (Unilever Home & Personal Care USA a division of Conopco, …, priority 2002, dated 2004).
Like-named read-outs stand apart in the source and are kept apart here.

Measured pKa value (Cited from Langmuir, Vol 16, pp 172-177, 2000): 8.6˜8.8
Measured pKa value (Cited from Proc. R. Soc. London, A133, 140, 1931): 8.5
Structure (SMILES): CCCCCCCCCCCCCCCC(=O)O [Fatty acid chain length 16]
